Drawing on ChEMBL document CHEMBL5649166, “RIP3 induces apoptosis independent of pronecrotic kinase activity” (Mol Cell, 2014), this text covers residual activity for three compounds.

For assay [1], the target named is Casein kinase II subunit alpha (Homo sapiens) (UniProt P68400). Nature of the assay: Inhibition of human CK2a using RRRDDDSDDD as substrate at 1 uM in presence of 32P-ATP by Hotspot assay relative to control; values are per cent of control.
Assay [2] addresses T1, Aurora kinase A (Homo sapiens) (UniProt O14965).
T1 sequence (whole entry): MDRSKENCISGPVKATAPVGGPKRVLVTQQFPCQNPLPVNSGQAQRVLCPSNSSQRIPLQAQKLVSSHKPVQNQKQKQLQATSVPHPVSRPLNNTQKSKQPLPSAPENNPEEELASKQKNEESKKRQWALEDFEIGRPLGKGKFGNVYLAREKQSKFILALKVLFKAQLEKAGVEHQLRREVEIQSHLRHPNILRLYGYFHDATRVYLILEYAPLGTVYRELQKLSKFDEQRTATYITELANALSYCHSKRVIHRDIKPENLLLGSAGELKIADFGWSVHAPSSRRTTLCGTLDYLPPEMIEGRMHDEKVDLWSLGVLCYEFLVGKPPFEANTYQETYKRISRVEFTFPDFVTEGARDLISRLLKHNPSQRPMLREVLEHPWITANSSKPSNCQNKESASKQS
In words: Inhibition of human Aurora A using H-LRRASLG as substrate at 1 uM in presence of 32P-ATP by Hotspot assay relative to control; values are per cent of control.

Assay [3] has as its target T2, Tyrosine-protein kinase JAK3 (Homo sapiens) (UniProt P52333).
T2 sequence (whole entry): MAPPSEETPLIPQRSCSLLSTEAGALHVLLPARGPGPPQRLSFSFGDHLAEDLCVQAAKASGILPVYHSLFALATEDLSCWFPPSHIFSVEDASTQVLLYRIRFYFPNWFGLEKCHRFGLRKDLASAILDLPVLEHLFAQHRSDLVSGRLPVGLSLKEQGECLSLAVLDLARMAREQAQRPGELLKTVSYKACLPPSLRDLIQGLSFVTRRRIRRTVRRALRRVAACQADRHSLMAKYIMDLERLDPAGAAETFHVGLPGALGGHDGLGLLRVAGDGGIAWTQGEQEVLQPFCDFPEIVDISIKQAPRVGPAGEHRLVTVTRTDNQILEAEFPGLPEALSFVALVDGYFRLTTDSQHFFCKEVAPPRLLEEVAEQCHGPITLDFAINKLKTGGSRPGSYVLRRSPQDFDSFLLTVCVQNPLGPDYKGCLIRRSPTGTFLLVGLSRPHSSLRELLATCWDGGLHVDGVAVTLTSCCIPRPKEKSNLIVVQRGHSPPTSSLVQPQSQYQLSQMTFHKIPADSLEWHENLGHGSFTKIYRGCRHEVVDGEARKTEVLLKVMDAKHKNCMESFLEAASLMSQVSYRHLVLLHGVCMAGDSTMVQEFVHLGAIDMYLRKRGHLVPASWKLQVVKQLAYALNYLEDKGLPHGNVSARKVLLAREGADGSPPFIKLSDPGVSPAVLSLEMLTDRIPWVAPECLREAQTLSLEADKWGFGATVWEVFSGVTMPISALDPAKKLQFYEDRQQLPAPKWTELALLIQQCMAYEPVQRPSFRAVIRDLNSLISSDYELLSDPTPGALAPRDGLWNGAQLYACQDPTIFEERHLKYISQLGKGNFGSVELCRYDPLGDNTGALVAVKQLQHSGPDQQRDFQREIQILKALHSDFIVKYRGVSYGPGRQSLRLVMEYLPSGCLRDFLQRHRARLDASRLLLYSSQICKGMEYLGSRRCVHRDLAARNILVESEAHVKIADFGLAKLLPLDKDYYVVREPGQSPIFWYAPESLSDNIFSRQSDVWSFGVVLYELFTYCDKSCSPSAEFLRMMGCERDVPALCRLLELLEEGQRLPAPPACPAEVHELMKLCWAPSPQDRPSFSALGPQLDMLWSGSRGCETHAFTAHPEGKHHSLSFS
In words: Inhibition of human JAK3 using GGEEEEYFELVKKKK as substrate at 1 uM in presence of 32P-ATP by Hotspot assay relative to control; values are per cent of control.

The target of assay [4] is T3, Serine/threonine-protein kinase Nek9 (Homo sapiens) (UniProt Q8TD19).
T3 sequence (whole entry): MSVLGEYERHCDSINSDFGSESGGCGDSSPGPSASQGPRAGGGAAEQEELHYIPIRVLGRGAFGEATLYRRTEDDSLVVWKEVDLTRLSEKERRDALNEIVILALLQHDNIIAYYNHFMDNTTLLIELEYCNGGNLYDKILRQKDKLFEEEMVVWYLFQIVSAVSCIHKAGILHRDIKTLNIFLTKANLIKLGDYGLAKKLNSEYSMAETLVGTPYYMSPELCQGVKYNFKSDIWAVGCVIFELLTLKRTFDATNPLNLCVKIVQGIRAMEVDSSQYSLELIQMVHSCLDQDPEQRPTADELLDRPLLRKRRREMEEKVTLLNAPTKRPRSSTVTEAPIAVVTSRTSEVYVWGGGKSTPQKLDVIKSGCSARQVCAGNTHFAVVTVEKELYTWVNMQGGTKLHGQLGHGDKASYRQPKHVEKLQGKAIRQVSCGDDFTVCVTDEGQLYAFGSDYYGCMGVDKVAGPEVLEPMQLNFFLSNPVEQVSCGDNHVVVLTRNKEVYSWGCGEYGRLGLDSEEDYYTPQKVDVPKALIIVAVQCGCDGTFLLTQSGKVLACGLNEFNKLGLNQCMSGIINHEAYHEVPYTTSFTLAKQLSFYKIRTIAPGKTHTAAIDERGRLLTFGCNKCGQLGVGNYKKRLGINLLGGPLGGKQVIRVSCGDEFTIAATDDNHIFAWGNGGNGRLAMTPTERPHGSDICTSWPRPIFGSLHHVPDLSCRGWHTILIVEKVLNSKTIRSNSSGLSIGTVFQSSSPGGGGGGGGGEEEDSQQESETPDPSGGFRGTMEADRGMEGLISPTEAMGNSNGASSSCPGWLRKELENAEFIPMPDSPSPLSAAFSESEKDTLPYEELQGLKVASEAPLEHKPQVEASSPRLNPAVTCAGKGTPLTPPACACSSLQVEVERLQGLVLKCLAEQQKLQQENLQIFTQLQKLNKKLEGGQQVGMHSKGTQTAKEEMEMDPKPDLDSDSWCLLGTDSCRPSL
In words: Inhibition of human NEK9 using myelin basic protein as substrate at 1 uM in presence of 32P-ATP by Hotspot assay relative to control; values are per cent of control.

Assay [5] addresses Wee1-like protein kinase (Homo sapiens) (UniProt P30291). Nature of the assay: Inhibition of human WEE1 using CDK1 (D146N)/cyclin B1 as substrate at 1 uM in presence of 32P-ATP by Hotspot assay relative to control; values are per cent of control.

Sequence of Casein kinase II subunit alpha (Homo sapiens) (P68400 whole entry, looked up): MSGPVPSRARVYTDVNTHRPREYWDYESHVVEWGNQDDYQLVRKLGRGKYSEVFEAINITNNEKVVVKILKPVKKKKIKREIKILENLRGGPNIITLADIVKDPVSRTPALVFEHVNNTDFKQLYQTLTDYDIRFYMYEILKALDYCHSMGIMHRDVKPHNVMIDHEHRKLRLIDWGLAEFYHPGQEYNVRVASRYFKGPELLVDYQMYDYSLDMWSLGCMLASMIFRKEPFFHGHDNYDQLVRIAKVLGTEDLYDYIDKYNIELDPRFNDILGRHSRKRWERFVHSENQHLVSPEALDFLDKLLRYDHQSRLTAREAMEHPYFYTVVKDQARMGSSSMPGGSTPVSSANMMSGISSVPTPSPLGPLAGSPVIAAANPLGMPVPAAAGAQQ
Sequence of Wee1-like protein kinase (Homo sapiens) (P30291 whole entry, looked up): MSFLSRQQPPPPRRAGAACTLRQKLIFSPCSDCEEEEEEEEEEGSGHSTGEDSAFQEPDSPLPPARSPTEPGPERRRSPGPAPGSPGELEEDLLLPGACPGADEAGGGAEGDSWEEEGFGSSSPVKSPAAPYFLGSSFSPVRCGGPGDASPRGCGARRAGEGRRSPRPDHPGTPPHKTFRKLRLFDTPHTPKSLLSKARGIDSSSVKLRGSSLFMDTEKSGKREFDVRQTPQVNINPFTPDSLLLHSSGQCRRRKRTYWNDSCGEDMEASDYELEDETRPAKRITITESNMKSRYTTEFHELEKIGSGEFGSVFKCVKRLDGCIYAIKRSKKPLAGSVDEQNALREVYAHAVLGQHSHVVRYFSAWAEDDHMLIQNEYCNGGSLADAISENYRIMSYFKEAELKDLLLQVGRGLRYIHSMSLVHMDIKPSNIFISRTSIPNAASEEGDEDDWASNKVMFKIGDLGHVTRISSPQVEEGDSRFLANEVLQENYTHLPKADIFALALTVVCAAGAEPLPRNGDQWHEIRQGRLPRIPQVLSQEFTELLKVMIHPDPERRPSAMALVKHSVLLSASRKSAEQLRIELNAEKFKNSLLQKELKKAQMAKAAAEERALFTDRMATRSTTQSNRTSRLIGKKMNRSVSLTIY

For the compound `CC(C)S(=O)(=O)c1ccc2nccc(Nc3ccc4scnc4c3)c2c1`, the residual activity was 92.4% in assay [1]; 95.9% in assay [2]; 102% in assay [3]; 86.7% in assay [4]; 106% in assay [5].

`CNC(=O)c1ccc2c(c1)ncn2-c1ccc(CC(=O)OC(C)(C)C)cc1`: the residual activity in assay [1] is 75.6%; in assay [2] it was 101%; in assay [3], 94.3%; in assay [4], 102%; in assay [5], 108%.

With `Cc1cc(-c2cnc(N)c3c(-c4ccc5scnc5c4)csc23)n(C)n1`, the residual activity in assay [1] amounted to 54.7%; in assay [2], 99%; in assay [3], 96.6%; in assay [4], 91%; in assay [5], 72.9%.

Usually residual activity stands for the signal under treatment as a percentage of the control signal.
